Reference: US11168095B2, “ASK1 inhibiting agents” (BIOGEN MA INC., priority 2017, dated 2021)
Several values for one entry are separate records, joined by “and”; a condition that tells them apart may be missing. Equal values may be shown once. Read-outs that look alike come from different tables or passages of the source.

Experiments:
[1] = amide bond, 14-membered ring, T3P/Et3N
[2] = 14-membered ring
[3] = target: ASK1 T838 auto phosphorylation in HEK-293T cells (Homo sapiens (Human), UniProt Q99683); assay: ASK1 (AUTO PHOS T838) assay, MSD format; assay type: cell-based; conditions: HEK 293T cells transfected with ASK1-V5 full length plasmid, compounds 1 hr at 37° C.; read-out: IC50
GST-hASK1 = GST-hASK1 (Homo sapiens (Human), UniProt Q99683); assay: ASK1 TR-FRET assay; assay type: biochemical; conditions: 5 nM GST-hASK1, 100 μM ATP, 2 μM STK Substrate 3
Procedure: The protein kinase activity of 5 nM GST-hASK1(Life Technologies PV4011) was assayed with 100 μM ATP and 2 μM of HTRF biotinylated STK Substrate 3 (CisBio Kit 62ST3PEJ), at ambient temperature in 25 mM Hepes, pH 7.5, 50 mM NaCl, 10 mM MgCl2, 0.02% Brij-35, 1 mM DTT, and 1% DMSO.
After a 10 minute pre-incubation, ASK1 protein kinase activity was initiated by addition of 10 μL of 300 μM ATP.

ASK1/MAP3K5 = ASK1/MAP3K5 (Homo sapiens (Human), UniProt Q99683); assay: ASK1/MAP3K5 assay by Reaction Biology Corp.; assay type: biochemical; conditions: 20 μM myelin basic protein (MBP), 10 μM ATP
Procedure: ASK1/MAP3K5 was used as the protein kinase and 20 μM of myelin basic protein (MBP) and 10 μM ATP were used as the substrate.

Chain of ASK1/MAP3K5 (Q99683 whole entry): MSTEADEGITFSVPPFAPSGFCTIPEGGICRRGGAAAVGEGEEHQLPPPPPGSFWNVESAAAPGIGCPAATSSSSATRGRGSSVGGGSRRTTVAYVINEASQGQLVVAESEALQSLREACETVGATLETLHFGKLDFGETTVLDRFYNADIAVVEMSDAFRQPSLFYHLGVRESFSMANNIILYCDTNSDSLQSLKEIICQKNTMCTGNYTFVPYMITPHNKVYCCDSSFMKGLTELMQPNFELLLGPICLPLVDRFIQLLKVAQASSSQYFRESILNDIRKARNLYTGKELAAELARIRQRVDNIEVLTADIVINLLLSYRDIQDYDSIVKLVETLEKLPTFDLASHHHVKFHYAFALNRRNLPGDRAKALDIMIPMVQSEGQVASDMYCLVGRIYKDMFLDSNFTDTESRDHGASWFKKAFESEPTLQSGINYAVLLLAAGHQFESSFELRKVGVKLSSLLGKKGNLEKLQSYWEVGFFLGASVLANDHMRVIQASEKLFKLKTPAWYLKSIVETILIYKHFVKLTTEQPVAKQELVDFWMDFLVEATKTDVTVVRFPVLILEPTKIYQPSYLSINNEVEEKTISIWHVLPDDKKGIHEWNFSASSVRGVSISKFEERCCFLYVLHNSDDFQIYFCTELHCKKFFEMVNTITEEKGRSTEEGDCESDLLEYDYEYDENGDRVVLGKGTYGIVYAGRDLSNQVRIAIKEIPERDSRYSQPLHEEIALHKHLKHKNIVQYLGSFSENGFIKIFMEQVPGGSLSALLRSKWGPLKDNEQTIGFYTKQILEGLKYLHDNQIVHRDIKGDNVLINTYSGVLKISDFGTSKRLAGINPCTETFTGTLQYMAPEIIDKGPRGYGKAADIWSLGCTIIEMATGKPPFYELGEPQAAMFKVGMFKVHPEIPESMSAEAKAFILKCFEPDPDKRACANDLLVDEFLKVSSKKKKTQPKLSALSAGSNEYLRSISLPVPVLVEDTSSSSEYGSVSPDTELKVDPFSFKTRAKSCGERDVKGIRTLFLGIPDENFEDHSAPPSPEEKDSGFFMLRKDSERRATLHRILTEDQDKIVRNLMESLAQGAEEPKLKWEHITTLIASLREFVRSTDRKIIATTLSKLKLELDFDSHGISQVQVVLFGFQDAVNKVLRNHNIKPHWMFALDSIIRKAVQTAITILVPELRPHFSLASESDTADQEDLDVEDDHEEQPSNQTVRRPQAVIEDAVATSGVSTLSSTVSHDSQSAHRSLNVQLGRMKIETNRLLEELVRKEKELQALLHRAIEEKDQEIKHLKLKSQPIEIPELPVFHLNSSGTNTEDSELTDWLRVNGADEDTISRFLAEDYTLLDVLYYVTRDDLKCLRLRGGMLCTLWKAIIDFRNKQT
Chain of ASK1 T838 auto phosphorylation in HEK-293T cells (Q99683 whole entry): as above
Chain of GST-hASK1 (Q99683 649-946): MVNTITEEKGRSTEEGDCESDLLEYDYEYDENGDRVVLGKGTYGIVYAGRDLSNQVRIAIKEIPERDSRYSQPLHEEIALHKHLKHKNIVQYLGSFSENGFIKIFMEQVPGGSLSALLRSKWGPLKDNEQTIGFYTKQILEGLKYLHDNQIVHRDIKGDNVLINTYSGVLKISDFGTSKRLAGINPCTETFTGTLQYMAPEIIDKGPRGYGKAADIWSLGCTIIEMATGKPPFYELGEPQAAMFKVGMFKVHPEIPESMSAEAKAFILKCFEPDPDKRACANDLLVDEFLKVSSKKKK

Row | Structure (SMILES) | IC50 [3] | IC50 (GST-hASK1) | IC50 (ASK1/MAP3K5) | further results
1 | O=C1Nc2cccc(n2)-c2nncn2CC=CCOc2cc(C(F)(F)F)ccc21 |  |  |  | ring closure, isolated yield (from C=CCOc1cc(C(F)(F)F)ccc1C(=O)Nc1cccc(-c2nncn2CC=C)n1, rcm bond, 14-membered ring, Hoveyda-Grubbs II (10 mol%), DCE, 2.64 mM, 80.0 °C, 3.0 h): 41%
2 | O=C1Nc2cccc(n2)-c2nncn2CCCCOc2cc(F)c(Cl)cc21 |  |  |  | ring closure, isolated yield (from Nc1cccc(-c2nncn2CCCCOc2cc(F)c(Br)cc2C(=O)O)n1, amide bond, 14-membered ring, T3P/Et3N, Et3N/EtOAc, 117.0 mM, 80.0 °C, 17.0 h): 35%
3 | CC1CCCOc2cc(Cl)ccc2C(=O)Nc2cccc(n2)-c2nncn21 (racemic) |  |  |  | ring closure, crude yield ([1]; from CC(CCCOc1cc(Br)ccc1C(=O)O)n1cnnc1-c1cccc(N)n1, EtOAc/Et3N, 50.0 °C, 12.0 h): 37%
4 | CC1CCCn2cnnc2-c2cccc(n2)NC(=O)c2cc(Cl)ccc2O1 (racemic) |  |  |  | ring closure, crude yield ([1]; from CC(CCCn1cnnc1-c1cccc(N)n1)Oc1ccc(Br)cc1C(=O)O, Et3N/EtOAc, 137.0 mM, 70.0 °C, 3.0 h): 57%
5 | CC1CCOc2cc(F)c(Cl)cc2C(=O)Nc2cccc(n2)-c2nncn2C1 (racemic) |  |  |  | ring closure, isolated yield (from CC(CCOc1cc(F)c(Br)cc1C(=O)O)Cn1cnnc1-c1cccc(N)n1, amide bond, 14-membered ring, T3P/Et3N, Et3N/EtOAc, 43.0 mM, 70.0 °C, 2.0 h): 23%
6 | O=C1Nc2cccc(n2)-c2nncn2CCCCOc2cc(Cl)c(F)cc21 |  |  |  | ring closure, isolated yield (from Nc1cccc(-c2nncn2CCCCOc2cc(Br)c(F)cc2C(=O)O)n1, amide bond, 14-membered ring, T3P/Et3N, Et3N/EtOAc, 110.0 °C, 0.05 h, 2 steps): 55%
7 | O=C1Nc2cccc(n2)-c2nncn2CCCCOc2cc(Cl)ccc21 |  |  |  | ring closure, isolated yield (from Nc1cccc(-c2nncn2CCCCOc2cc(Br)ccc2C(=O)O)n1, amide bond, 14-membered ring, T3P/Et3N, Et3N/EtOAc, 116.0 mM, 50.0 °C, 3.0 h): 27%
8 | O=C1Nc2cccc(n2)-c2nncn2CCCCOc2cc(C(F)(F)F)c(Cl)cc21 |  |  |  | ring closure, yield after HPLC ([2]; from Nc1cccc(-c2nncn2CCCCOc2cc(C(F)(F)F)c(Br)cc2C(=O)O)n1, amide bond, T3P/Et3N, Et3N/EtOAc, 18.0 mM, 50.0 °C, 4.0 h): 40%
9 | CC(C)(C)OC(=O)N1C(=O)c2ccc(C(F)(F)F)cc2OCC=CCn2cnnc2-c2cccc1n2 |  |  |  | ring closure, yield after HPLC ([2]; from C=CCOc1cc(C(F)(F)F)ccc1C(=O)N(C(=O)OC(C)(C)C)c1cccc(-c2nncn2CC=C)n1, rcm bond, Hoveyda-Grubbs I (20 mol%), toluene, 1.9 mM, 110.0 °C, 17.0 h): 9% and 13%
10 | Cc1ccc2c(c1)C(=O)Nc1cccc(n1)-c1nncn1CCCCO2 [Example 18, 5^5-Methyl-1^4H-6-oxa-3-aza-2(2,6)-pyridina-1(3,4)-triazola-5(1,2)-benzenacyclodecaphan-4-one] | < 1000 nM | < 100 nM | < 100 nM | 
11 | Cc1ncn(-c2ccc3c(c2)C(=O)Nc2cccc(n2)-c2nncn2CCCCO3)c1C [Example 42, 5^5-(4,5-Dimethyl-1H-imidazol-1-yl)-1^4H-6-oxa-3-aza-2(2,6)-pyridina-1(3,4)-triazola-5(1,2)-benzenacyclodecaphan-4-one] | < 1000 nM | < 100 nM | < 100 nM | 
12 | O=C1Nc2cccc(n2)-c2nncn2CCCCOc2ccc(C3CCOCC3)cc21 [Example 17, 5^5-(Tetrahydro-2H-pyran-4-yl)-1^4H-6-oxa-3-aza-2(2,6)-pyridina-1(3,4)-triazola-5(1,2)-benzenacyclodecaphan-4-one] | < 1000 nM | < 100 nM | < 100 nM | 
13 | O=C1Nc2cccc(n2)-c2nncn2CCCCOc2ccc(Cl)cc21 |  |  |  | ring closure, isolated yield (from Nc1cccc(-c2nncn2CCCCOc2ccc(Br)cc2C(=O)O)n1, amide bond, 14-membered ring, T3P/Et3N, Et3N/EtOAc, 76.0 mM, 80.0 °C, 4.0 h): 41%
14 | CC(C)(C)OC(=O)N1C(=O)c2cc(Br)c(F)cc2OCCC=CCn2cnnc2-c2cccc1n2 |  |  |  | ring closure, isolated yield (from C=CCCOc1cc(F)c(Br)cc1C(=O)N(C(=O)OC(C)(C)C)c1cccc(-c2nncn2CC=C)n1, rcm bond, 15-membered ring, Hoveyda-Grubbs I (20 mol%), toluene, 1.66 mM, 110.0 °C, 17.0 h): 31%
15 | O=C1Nc2cccc(n2)-c2nncn2CCCCCOc2ccc(N3CCOCC3)cc21 [Example 172, 5^5-Morpholino-1^4H-6-oxa-3-aza-2(2,6)-pyridina-1(3,4)-triazola-5(1,2)-benzenacycloundecaphan-4-one] | < 1000 nM | < 100 nM | < 100 nM | 
16 | O=C1Nc2cccc(n2)-c2nncn2CCCCOc2ccc(N3CCCC(F)(F)C3)cc21 [Example 11, 5^5-(3,3-Difluoropiperidin-1-yl)-1^4H-6-oxa-3-aza-2(2,6)-pyridina-1(3,4)-triazola-5(1,2)-benzenacyclodecaphan-4-one] | < 1000 nM | < 100 nM | < 100 nM | 
